For orientation: Ki means a dissociation constant, usually derived from enzyme kinetics or from competition with a known ligand. Read a high Ki as lower affinity.

Each structure is given as a SMILES string. Where only a bound is given, the exact number is not on record here.

We go through six compounds from patent publication US20040235834A1, “Thiazoles useful as inhibitors of protein kinases” (priority 2003, published 2004).

In experiment [1] the target is T1, ZAP-70 (Homo sapiens, UniProt P43403).
T1 sequence (P43403 1-619): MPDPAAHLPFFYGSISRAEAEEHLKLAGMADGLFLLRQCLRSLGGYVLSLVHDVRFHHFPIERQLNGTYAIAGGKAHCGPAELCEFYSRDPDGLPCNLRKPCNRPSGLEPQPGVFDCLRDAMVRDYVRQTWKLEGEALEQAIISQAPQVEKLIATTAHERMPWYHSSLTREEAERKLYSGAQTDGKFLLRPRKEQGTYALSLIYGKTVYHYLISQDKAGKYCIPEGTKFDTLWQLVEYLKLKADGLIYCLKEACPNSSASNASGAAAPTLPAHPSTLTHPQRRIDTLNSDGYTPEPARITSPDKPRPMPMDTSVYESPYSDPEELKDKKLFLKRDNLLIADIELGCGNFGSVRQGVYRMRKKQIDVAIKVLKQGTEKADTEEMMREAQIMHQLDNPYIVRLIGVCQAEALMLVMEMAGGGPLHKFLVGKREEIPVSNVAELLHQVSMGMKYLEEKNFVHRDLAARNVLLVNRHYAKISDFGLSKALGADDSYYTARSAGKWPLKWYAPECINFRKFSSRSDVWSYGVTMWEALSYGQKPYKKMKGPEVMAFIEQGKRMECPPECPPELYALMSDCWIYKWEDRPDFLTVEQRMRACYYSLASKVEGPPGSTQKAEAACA
The experiment is described as follows: ZAP-70 inhibition assay (standard coupled enzyme assay). Conditions: 100 μM ATP, 20 μM poly-4EY peptide, 30° C., 60 nM ZAP-70. It counts as biochemical. As to the method:
Compounds were screened for their ability to inhibit ZAP-70 using a standard coupled enzyme assay (Fox et al., Protein Sci. 1998, 7, 2249). Assays were carried out in a mixture of 100 mM HEPES (pH 7.5), 10 mM MgCl2, 25 mM NaCl, 2 mM DTT and 3% DMSO. Final substrate concentrations in the assay were 100 μM ATP (Sigma Chemicals) and 20 μM peptide (poly-4EY, Sigma Chemicals). Assays were carried out at 30° C. and 60 nM ZAP-70. Final concentrations of the components of the coupled enzyme system were 2.5 mM phosphoenolpyruvate, 300 μM NADH, 30 μg/ml pyruvate kinase and 10 μg/ml lactate dehydrogenase.
An assay stock buffer solution was prepared containing all of the reagents listed above, with the exception of ZAP-70 and the test compound of interest of the present invention. 55 μl of the stock solution was placed in a 96 well plate followed by addition of 2 μl of DMSO stock containing serial dilutions of the test compound of the present invention (typically starting from a final concentration of 15 μM). The plate was preincubated for 10 minutes at 30° C. and the reaction initiated by addition of 10 μl of enzyme (final concentration 60 nM). Initial reaction rates were determined with a Molecular Devices SpectraMax Plus plate reader over a 15 minute time course. Ki data was calculated from non-linear regression analysis using the Prism software package (GraphPad Prism version 3.Oa for Macintosh, GraphPad Software, San Diego Calif., USA).

The target of experiment [2] is SYK (Homo sapiens, UniProt P43405). The experiment can be described thus: SYK inhibition assay (standard coupled enzyme assay). It is filed as biochemical. As to conditions: 200 μM ATP, 4 μM poly Gly-Tyr peptide, 30° C. The procedure:
Compounds were screened for their ability to inhibit SYK using a standard coupled enzyme assay (Fox et al., Protein Sci. 1998, 7, 2249). Reactions were carried out in 100 mM HEPES (pH 7.5), 10 mM MgCl2, 25 mM NaCl, 1 mM DTT and 1.5% DMSO. Final substrate concentrations in the assay were 200 μM ATP (Sigma chemical Co.) and 4 μM poly Gly—Tyr peptide (Sigma Chemical Co.). Assays were carried out at 30° C. and 200 nM SYK. Final concentrations of the components of the coupled enzyme system were 2.5 mM phosphoenolpyruvate, 300 μM NADH, 30 μg/ml pyruvate kinase and 10 μg/ml lactate dehydrogenase.
An assay stock buffer solution was prepared containing all of the reagents listed above, with the exception of SYK, DTT, and the test compound of interest of the present invention. 56 μl of the test reaction was placed in a 96 well plate followed by the addition of 1 μl of 2 mM DMSO stock containing the test compound of the present invnetion (final compound concentration 30 μM). The plate was pre-incubated for ˜10 minutes at 30° C. and the reaction initiated by the addition of 10 μl of enzyme (final concentration 25 nM).

For the compound `Cc1cc(Nc2nccc(-c3cscn3)n2)cc(C(F)(F)F)c1` [Compound I-5], the Ki in experiment [1] and in experiment [2] was no more than 5 µM each time.

Turning to `Oc1cc(Nc2nccc(-c3cscn3)n2)cc(C(F)(F)F)c1` [Compound I-6], the Ki in experiment [1] and in experiment [2] was no more than 5 µM throughout.

In the case of `COc1cc(Nc2nccc(-c3cscn3)n2)cc(C(F)(F)F)c1` [Compound I-2], the inhibitory constant (Ki) in experiment [1] and in experiment [2] was no more than 5 µM each time.

On to `Cc1cc(C)cc(Nc2nccc(-c3csc(CO)n3)n2)c1` [Compound I-4], for which the Ki in experiment [1] and in experiment [2] was no more than 5 µM throughout.

Consider `CC(=O)c1nc(-c2ccnc(Nc3cc(C)cc(C)c3)n2)cs1` [Compound I-3], for which the inhibitory constant (Ki) in experiment [1] and in experiment [2] was no more than 5 µM throughout.

With `Cc1cc(C)cc(Nc2nccc(-c3cscn3)n2)c1` [Compound I-1], the Ki in experiment [1] and in experiment [2] was no more than 5 µM throughout.
